In brackets after ≈: the same amount, converted by molar mass.
Key:
Colony PTA22 = assay: Antibiotic susceptibility test; format: cell-based, Lactiplantibacillus Plantarum; conditions: Lactiplantibacillus plantarum, PTA22, 24 h, read-out: Minimum inhibitory concentration of the antibiotic to PTA22, 96-well, 37 C 24 h, OD600
Text: (§1) To test bacterial susceptibility to antibiotics, such as Aminoglycosides antibiotics, Sulfonamide antibiotics, Quinolone antibiotics, Ampicillin, Cefotaxime, Chloramphenicol, Erythromycin, Rifampicin and Tetracycline, the experimental protocol were as follow. Further, the Quinolone antibiotics comprise Ciprofloxacin, the Aminoglycosides antibiotics comprise Kanamycin and […], and the Sulfonamide antibiotics comprise Sulfamethoxazole. […] The initial absorbance at 600 nm (OD600) of each well was recorded. Then, the 96-well plates were placed at 37° C. and cultured for 24 hours. Next, the OD600 of each well was measured again to determine minimum inhibitory concentration.

Colony LP2 = assay: Antibiotic susceptibility test; format: cell-based, Lactiplantibacillus Plantarum; conditions: Lactiplantibacillus plantarum, LP2, 24 h, 96-well, 37 C 24 h, OD600; read-out: Minimum inhibitory concentration of the antibiotic to LP2
Text: as §1

Colony LP19 = assay: Antibiotic susceptibility test; format: cell-based, Lactiplantibacillus Plantarum; conditions: Lactiplantibacillus plantarum, LP19, 24 h, read-out: Minimum inhibitory concentration of the antibiotic to LP19, 96-well, 37 C 24 h, OD600
Text: as §1

Colony LP1 = assay: Antibiotic susceptibility test; format: cell-based, Lactiplantibacillus Plantarum; conditions: Lactiplantibacillus plantarum, LP1, 24 h, read-out: Minimum inhibitory concentration of the antibiotic to LP1, 96-well, 37 C 24 h, OD600
Text: as §1

Colony LP5 = assay: Antibiotic susceptibility test; format: cell-based, Lactiplantibacillus Plantarum; conditions: Lactiplantibacillus plantarum, LP5, 24 h, read-out: Minimum inhibitory concentration of the antibiotic to LP5, 96-well, 37 C 24 h, OD600
Text: as §1

species L. plantarum = conditions: EFSA (2005); cited from earlier work
L. plantarum 299v = conditions: from Klarin et al., 2019; cited from earlier work
L. plantarum 299 = conditions: from Klarin et al., 2019; cited from earlier work
L. pl 24-2L = conditions: from Georgieva et al., 2015; cited from earlier work
L. pl 24-5D = conditions: from Georgieva et al., 2015; cited from earlier work
Salmonella enterica = assay: Agar diffusion method-2 (cell-free solution); format: cell-based; conditions: colonies as cell-free solution in holes of TSA; ddH2O control 8
Protocol: (§2) Firstly, the CFSs (containing metabolites) were prepared. Besides, when probiotics break down fiber and convert the fiber into metabolites, the metabolites are postbiotics.
(§3) Next, the pathogenic bacteria described above were also cultured with 37° C. until the concentration thereof reached 1×10^8 CFU/mL, respectively. 100 μL bacterial solutions of the pathogenic bacteria described above were evenly plated on Tryptone Soy Agar (TSA) and stay for 10 minutes. Then, tips were used to form several holes in the TSA. Subsequently, 100 μL bacterial solutions of the colonies described above were added into the holes and then cultured at 37° C. for 12 hours.
(§4) This experiment is designed that the CFSs in the holes prevent the pathogenic bacteria on the plates from growing. Therefore, the larger zone indicates the better antibacterial effect.

Klebsiella pneumoniae = assay: Agar diffusion method-2 (cell-free solution); format: cell-based; conditions: colonies as cell-free solution in holes of TSA; ddH2O control 8
Protocol: as §2, §3, §4

Shigella sonnei [1] = assay: Agar diffusion method-2 (cell-free solution); format: cell-based; conditions: colonies as cell-free solution in holes of TSA; ddH2O control 8
Protocol: as §2, §3, §4

Streptococcus pneumoniae = assay: Agar diffusion method-2 (cell-free solution); format: cell-based; conditions: colonies as cell-free solution in holes of TSA; ddH2O control 8
Protocol: as §2, §3, §4

Bacillus cereus = assay: Agar diffusion method-2 (cell-free solution); format: cell-based; conditions: colonies as cell-free solution in holes of TSA; ddH2O control 8
Protocol: as §2, §3, §4

Escherichia coli (ETEC) = assay: Agar diffusion method-2 (cell-free solution); format: cell-based; conditions: colonies as cell-free solution in holes of TSA; ddH2O control 8
Protocol: as §2, §3, §4

Pseudomonas aeruginosa = assay: Agar diffusion method-2 (cell-free solution); format: cell-based; conditions: colonies as cell-free solution in holes of TSA; ddH2O control 8
Protocol: as §2, §3, §4

Shigella sonnei [2] = assay: Minimum inhibitory concentration and minimum bacterial concentration; format: cell-based; conditions: antibiotics
Protocol: (§5) Minimum inhibitory concentration (MIC) refers to the minimum concentration at which the development of bacteria can be blocked and antibacterial resistance can be observed after cultured. The lower MIC means the better effect on bacteria.
(§6) The supernatants of the cultured colonies described above were collected, as cell-free solutions (CFSs), by centrifuge at 5000 rpm after cultured the colonies in a nutrient broth and shaking at 37° C. for 48 hours.
(§7) Next, 100 μL each of the CFSs and 100 μL bacterial solutions of the pathogenic bacteria were respectively added to each well of a 96-well plate. Thus, the total volume in each well was 200 μL. The tested pathogenic bacteria included Salmonella enterica, Shigella sonnei, Klebsiella pneumoniae, Streptococcus pneumoniae, Bacillus cereus, Staphylococcus aureus, Pseudomonas aeruginosa, and Escherichia coli.
(§8) As well, 100 μL each of the nutrient broth containing Ampicillin or Kanamycin and 100 μL bacterial solutions of the pathogenic bacteria were respectively added to each well of a 96-well plate. Thus, the total volume in each well was 200 μL.
(§9) Then, initial values of OD600 in each well were recorded. Subsequently, the 96-well plates were cultured at 37° C. for 24 hours, and the OD600 values thereof were re-recorded for determining the MICs of each colony described above.
(§10) Finally, 100 μL CFSs of the next three concentrations […] MIC were taken to be plated on nutrient agar and then cultured at 37° C. for 48-72 hours. The concentrations of the CFSs that no colonies grown on nutrient agar were determined to be the minimum bacterial concentration (MBCs).

Staphylococcus aureus = assay: as above; format: cell-based; conditions: antibiotics
Protocol: as §5, §6, §7, §8, §9, §10

[3] = plated on nutrient agar 48-72 h

| Structure (SMILES) | MIC (Colony PTA22) | MIC (Colony LP2) | MIC (Colony LP19) | MIC (Colony LP1) | MIC (Colony LP5) | EFSA, MIC breakpoints species L. plantarum (species L. plantarum) | Minimum inhibitory concentration of the antibiotic to L. plantarum 299v (L. plantarum 299v) | Minimum inhibitory concentration of the antibiotic to L. plantarum 299 (L. plantarum 299) | Minimum inhibitory concentration of the antibiotic to L. pl 24-2L (L. pl 24-2L) | Minimum inhibitory concentration of the antibiotic to L. pl 24-5D (L. pl 24-5D) | further results |
| --- | --- | --- | --- | --- | --- | --- | --- | --- | --- | --- | --- |
| O=C(O)c1cn(C2CC2)c2cc(N3CCNCC3)c(F)cc2c1=O [Ciprofloxacin] | > 128 µg/mL | > 128 µg/mL | > 128 µg/mL | > 128 µg/mL | > 128 µg/mL |  |  |  |  |  |  |
| O=C(N[C@H](CO)[C@H](O)c1ccc([N+](=O)[O-])cc1)C(Cl)Cl [Chloramphenicol] | 32 µg/mL (≈ 99 µM) | 8 µg/mL (≈ 24.8 µM) | 16 µg/mL (≈ 49.5 µM) | 8 µg/mL (≈ 24.8 µM) | 16 µg/mL (≈ 49.5 µM) | 8 µg/mL | 2 µg/mL | 2 µg/mL | 4 µg/mL | 6 µg/mL |  |
| CO[C@H]1/C=C/O[C@@]2(C)Oc3c(C)c(O)c4c(O)c(c(/C=N/N5CCN(C)CC5)c(O)c4c3C2=O)NC(=O)/C(C)=C\C=C\[C@H](C)[C@H](O)[C@@H](C)[C@@H](O)[C@@H](C)[C@H](OC(C)=O)[C@@H]1C [Rifampicin] | 2 µg/mL (≈ 2.43 µM) | 1 µg/mL (≈ 1.22 µM) | 2 µg/mL (≈ 2.43 µM) | 1 µg/mL (≈ 1.22 µM) | 1 µg/mL (≈ 1.22 µM) |  |  |  |  |  |  |
| CN(C)[C@@H]1C(O)=C(C(N)=O)C(=O)[C@@]2(O)C(O)=C3C(=O)c4c(O)cccc4[C@@](C)(O)[C@H]3C[C@@H]12 [Tetracycline] | 64 µg/mL (≈ 144 µM) | 32 µg/mL (≈ 72 µM) | 32 µg/mL (≈ 72 µM) | 32 µg/mL (≈ 72 µM) | 32 µg/mL (≈ 72 µM) |  |  |  |  |  |  |
| CC1(C)S[C@@H]2[C@H](NC(=O)[C@H](N)c3ccccc3)C(=O)N2[C@H]1C(=O)O [Ampicillin] | 0.5 µg/mL (≈ 1.43 µM) | 0.25 µg/mL (≈ 0.715 µM) | 0.25 µg/mL (≈ 0.715 µM) | 0.125 µg/mL (≈ 0.358 µM) | 0.25 µg/mL (≈ 0.715 µM) | 4 µg/mL | 0.094 µg/mL | 0.094 µg/mL | 0.38 µg/mL | 1 µg/mL | Inhibitory zone, Salmonella Enterica (Salmonella enterica): 8 mm; Inhibitory zone, Klebsiella Pneumoniae (Klebsiella pneumoniae): 8 mm; Inhibitory zone, Shigella Sonnei (Shigella sonnei [1]): 12 mm; Inhibitory zone, Streptococcus Pneumoniae (Streptococcus pneumoniae): 8 mm; Inhibitory zone, Bacillus Cereus (Bacillus cereus): 8 mm; Inhibitory zone, Escherichia coli (ETEC) (Escherichia coli (ETEC)): 8 mm; Inhibitory zone, Pseudomonas Aeruginosa (Pseudomonas aeruginosa): 8 mm; MIC (Shigella sonnei [2]; 37 C 24 h, OD600): 8 µg/mL (≈ 22.9 µM); MBC (Shigella sonnei [2]; [3]): 16 µg/mL (≈ 45.8 µM); MIC (Staphylococcus aureus; 37 C 24 h, OD600): 0.5 µg/mL (≈ 1.43 µM); MBC (Staphylococcus aureus; [3]): 1 µg/mL (≈ 2.86 µM) |

Source: patent US20240390438A1, “PROBIOTICS SEPARATED FROM RABBIT FECES AND FOOD CONTAINING PROBIOTICS” (AGENT Innovation Co., Ltd., priority 2021, published 2024)
